# Laboratory results taken from patent US20250177581A1, “NTSR1-TARGETED RADIOPHARMACEUTICALS AND DNA DAMAGE RESPONSE INHIBITOR COMBINATION THERAPY” (Fusion Pharmaceuticals Inc., priority 2022, published 2025).
# System: CT-26-mNTSR1 tumor
# Assay: Combination of [^225Ac]-Compound A and Olaparib in CT-26-mNTSR1 tumor bearing mice, tumor growth
# Type: in vivo, mouse
# Details: olaparib monotherapy at 50 mg/kg
# Method: An in vivo study was conducted to test the effect of [^225Ac]-Compound A (as described in Example 3) in combination with Olaparib in CT-26-mNTSR1 tumor bearing mice.
structure (smiles),measurement,value
O=C(c1cc(Cc2n[nH]c(=O)c3ccccc23)ccc1F)N1CCN(C(=O)C2CC2)CC1 [olaparib],reduction in tumor growth compared to control mice,slight or neglible reduction in tumor growth
